# Target: T1, human LPA1 (Homo sapiens, UniProt Q92633)
# T1 construct: the full-length cDNA for human LPA1 was obtained by PCR of the reverse transcription reaction; expressed in transfected cells
# Test: LPA1 calcium flux assay
# Assay type: cell-based
# Conditions: human LPA1 expressing CHO cells, stimulated with 10 nM LPA; read-out: HLPA1 Ca Flux IC50
# Procedure: Establishment of a CHO Cell Line Stably Expressing Human LPA1
# A 1.1 kb cDNA encoding the human LPA1 receptor was cloned from human lung.
# Human lung RNA (Clontech Laboratories, Inc. USA) was reverse transcribed using the RETROscript kit (Ambion, Inc.) and the full-length cDNA for human LPA1 was obtained by PCR of the reverse transcription reaction. The nucleotide sequence of the cloned human LPA1 was determined by sequencing and confirmed to be identical to the published human LPA1 sequence (An et al. Biochem. Biophys. Res. Commun. 231:619 (1997). The cDNA was cloned into the pcDNA5/FRT expression plasmid and transfected in CHO cells using lipofectamine 2000 (Invitrogen Corp., USA). Clones stably expressing human LPA1 were selected using hygromycin and identified as cells that show Ca-influx in response to LPA.
# LPA1 and LPA3 Calcium Flux Assays
# Human LPA1 or LPA3 expressing CHO cells are seeded at 20,000-45,000 cells per well in a 96-well poly-D-lysine coated plate one or two days before the assay. Prior to the assay, the cells are washed once with PBS and then cultured in serum-free media overnight. On the day of the assay, a calcium indicator dye (Calcium 4, Molecular Devices) in assay buffer (HBSS with Ca^2+ and Mg^2+ and containing 20 mM Hepes and 0.3% fatty-acid free human serum albumin) is added to each well and incubation continued for 1 hour at 37° C. 10 μl of test compounds in 2.5% DMSO are added to the cells and incubation continued at room temperature for 30 minutes. Cells are the stimulated by the addition of 10 nM LPA and intracellular Ca^2+ measured using the Flexstation 3 (Molecular Devices). IC50s are determined using Graphpad prism analysis of drug titration curves.
# T1 sequence (Q92633 whole entry): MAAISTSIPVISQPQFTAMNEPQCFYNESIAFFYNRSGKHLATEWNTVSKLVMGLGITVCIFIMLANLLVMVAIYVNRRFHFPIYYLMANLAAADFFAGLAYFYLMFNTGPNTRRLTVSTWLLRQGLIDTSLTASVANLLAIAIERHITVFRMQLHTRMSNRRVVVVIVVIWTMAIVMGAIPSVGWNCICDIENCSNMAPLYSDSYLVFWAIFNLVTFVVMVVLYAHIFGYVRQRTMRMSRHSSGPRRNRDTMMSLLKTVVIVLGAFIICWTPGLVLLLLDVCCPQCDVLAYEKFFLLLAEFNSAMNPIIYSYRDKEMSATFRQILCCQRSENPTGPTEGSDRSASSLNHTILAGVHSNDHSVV
row,SMILES,IC50
1,"Cc1noc(-c2ccc(-c3ccc(C4(C(=O)O)CC4)cc3)cc2)c1Nc1cccc(-c2ccccc2C#N)n1 [Compound 1-91, 1-(4′-{4-[6-(2-Cyano-phenyl)-pyridin-2-ylamino]-3-methyl-isoxazol-5-yl}-biphenyl-4-yl)-cyclopropanecarboxylic acid]",< 300 nM
2,"Cc1noc(-c2ccc(-c3ccc(C4(C(=O)O)CC4)cc3)cc2)c1C(O)c1nnc(Cc2ccccc2)o1 (single isomer, unassigned) [Compound 1-34, 1-(4′-{4-[(5-Benzyl-[1,3,4]oxadiazol-2-yl)-hydroxy-methyl]-3-methyl-isoxazol-5-yl}-biphenyl-4-yl)-cyclopropanecarboxylic acid]",< 300 nM
3,"Cc1noc(-c2ccc(-c3ccc(C4(C(=O)O)CC4)cc3)cc2)c1Nc1nccc(-c2ccccc2)n1 [Compound 1-115, 1-{4′-[3-Methyl-4-(4-phenyl-pyrimidin-2-ylamino)-isoxazol-5-yl]-biphenyl-4-yl}-cyclopropanecarboxylic acid]",< 300 nM
4,"Cc1noc(-c2ccc(-c3ccc(C4(C(=O)O)CC4)cc3)cc2)c1C(O)c1cn(Cc2cccc(C(F)(F)F)c2)nn1 (stereo not drawn) [Compound 1-50, 1-[4′-(4-{Hydroxy-[1-(3-trifluoromethyl-benzyl)-1H-[1,2,3]triazol-4-yl]-methyl}-3-methyl-isoxazol-5-yl)-biphenyl-4-yl]-cyclopropanecarboxylic acid]",1000 to 50000 nM
5,"COc1ccc(-c2cccc(Nc3c(C)noc3-c3ccc(-c4ccc(C5(C(=O)O)CC5)cc4)cc3)n2)cn1 [Compound 1-98, 1-{4′-[4-(6′-Methoxy-[2,3′]bipyridinyl-6-ylamino)-3-methyl-isoxazol-5-yl]-biphenyl-4-yl}-cyclopropanecarboxylic acid]",< 300 nM
6,"CCOc1ccc(-c2cccc(Nc3c(C)noc3-c3ccc(-c4ccc(C5(C(=O)O)CC5)cc4)cc3)n2)cn1 [Compound 1-87, 1-{4′-[4-(6′-Ethoxy-[2,3]bipyridinyl-6-ylamino)-3-methyl-isoxazol-5-yl]-biphenyl-4-yl}-cyclopropanecarboxylic acid]",300 to 1000 nM
7,"Cc1noc(-c2ccc(-c3ccc(C4(C(=O)O)CC4)cc3)cc2)c1CN1CC(c2ccccc2)CC1=O (stereo not drawn) [Compound 1-7, 1-{4′-[3-Methyl-4-(2-oxo-4-phenyl-pyrrolidin-1-ylmethyl)-isoxazol-5-yl]-biphenyl-4-yl}-cyclopropanecarboxylic acid]",< 300 nM
8,"COc1ccccc1-c1cccc(Nc2c(C)noc2-c2ccc(-c3ccc(C4(C(=O)O)CC4)cc3)cc2)n1 [Compound 1-94, 1-(4′-{4-[6-(2-Methoxy-phenyl)-pyridin-2-ylamino]-3-methyl-isoxazol-5-yl}-biphenyl-4-yl)-cyclopropanecarboxylic acid]",< 300 nM

# The next lines start with the values.
row,IC50,SMILES
1,< 300 nM,"COc1c(F)cccc1-c1cccc(Nc2c(C)noc2-c2ccc(-c3ccc(C4(C(=O)O)CC4)cc3)cc2)n1 [Compound 1-159, 1-(4′-{4-[6-(3-Fluoro-2-methoxy-phenyl)-pyridin-2-ylamino]-3-methyl-isoxazol-5-yl}-biphenyl-4-yl)-cyclopropanecarboxylic acid]"
2,< 300 nM,"Cc1noc(-c2ccc(-c3ccc(C4(C(=O)O)CC4)cc3)cc2)c1Nc1cncc(-c2cccc(C(F)(F)F)c2)c1 [Compound 1-118, 1-(4′-{3-Methyl-4-[5-(3-trifluoromethyl-phenyl)-pyridin-3-ylamino]-isoxazol-5-yl}-biphenyl-4-yl)-cyclopropanecarboxylic acid]"
3,< 300 nM,"Cc1noc(-c2ccc(-c3ccc(C4(C(=O)NS(C)(=O)=O)CC4)cc3)cc2)c1Nc1cccc(Cc2ccccc2)n1 [Compound 3-5, N-(1-{4′-[4-(6-Benzyl-pyridin-2-ylamino)-3-methyl-isoxazol-5-yl]-biphenyl-4-yl}-cyclopropanecarbonyl)-methanesulfonamide]"
4,< 300 nM,"Cc1noc(-c2ccc(-c3ccc(C4(C(=O)O)CC4)cc3)cc2)c1Nc1cccc(OC(C)C2CCCCC2)n1 (stereo not drawn) [Compound 1-140, 1-(4′-{4-[6-(1-Cyclohexyl-ethoxy)-pyridin-2-ylamino]-3-methyl-isoxazol-5-yl}-biphenyl-4-yl)-cyclopropanecarboxylic acid]"

# Reference: patent publication US8664220B2, “Polycyclic compounds as lysophosphatidic acid receptor antagonists” (Amira Pharmaceuticals, Inc., priority 2009, dated 2014)
